From US8802597B2, “Herbicidal pyrimidines” (E I du Pont de Nemours and Company, priority 2003, dated 2014)

Tests used:
Format in all cases: in vivo
[1] = tested on: guineagrass (Panicum maximum); test: Test G pre/postemergence
Text: (§1) Seeds or nutlets of plant species selected from bermudagrass (Cynodon dactylon), Surinam grass (Brachiaria decumbens), large crabgrass (Digitaria sanguinalis), green foxtail (Setaria viridis), goosegrass (Eleusine indica), johnsongrass (Sorghum halepense), kochia (Kochia scoparia), pitted morningglory (Ipomoea lacunosa), purple nutsedge (Cyperus rotundus), common ragweed (Ambrosia elatior), black mustard (Brassica nigra), guineagrass (Panicum maximum), dallisgrass (Paspalum dilatatum), barnyardgrass (Echinochloa crus-galli), southern sandbur (Cenchrus echinatus), common sowthistle (Sonchus oleraceous), prickly sida (Sida spinosa), Italian ryegrass (Lolium multiflorum), common purslane (Portulaca oleracea), broadleaf signalgrass (Brachiaria platyphylla), common groundsel (Senecio vulgaris), common chickweed (Stellaria media), tropical spiderwort (Commelina benghalensis), annual bluegrass (Poa annua), downy bromegrass (Bromus tectorum), itchgrass (Rottboellia cochinchinensis), quackgrass (Elytrigia repens), Canada horseweed (Conyza canadensis), field bindweed (Convolvulus arvensis), spanishneedles (Bidens bipinnata), common mallow (Malva sylvestris), and Russian thistle (Salsola kali) were planted and treated preemergence with test chemicals formulated in a non-phytotoxic solvent mixture which included a surfactant.
(§2) At the same time, plants selected from these weed species were treated with postemergence applications of some of the test chemicals formulated in the same manner. Plants ranged in height from 2 to 18 cm (1- to 4-leaf stage) for postemergence treatments. Treated plants and controls were maintained in a greenhouse for 12 to 21 days, after which time all species were compared to controls and visually evaluated.
(§3) Plant response ratings, summarized in Table G, are based on a scale of 0 to 100 where 0 is no effect and 100 is complete control. A dash (-) response means no test result.

[2] = tested on: large crabgrass (Digitaria sanguinalis); test: Test G pre/postemergence
Text: as §1, §2, §3

[3] = tested on: ducksalad (Heteranthera limosa); test: Test E flooded paddy water application; settings: Flood, 21 days, scale 0 to 100 (0 no effect, 100 complete control); for Plant response rating, Ducksalad: 16 g ai/ha
Procedure, shortened: (§4)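 Weeds sown in sterilized Tama silt loam (2.6% organic matter), greenhouse 29.5/26.7° C, 16-h photoperiod; at 2.0–2.5-leaf stage pots flooded to 3 cm and compound added to paddy water. Visual rating vs untreated controls after 21 days, 0 (no effect) to 100 (complete control).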

[4] = tested on: bearded (brdd.) sprangletop (Leptochloa fusca ssp. fascicularis); test: Test E flooded paddy water application; settings: Flood, 21 days, scale 0 to 100 (0 no effect, 100 complete control)
Procedure, shortened: as §4

[5] = tested on: transplanted rice seedlings (Oryza sativa cv. ‘Japonica-M202’); test: Test E flooded paddy water application; settings: Flood, 21 days, scale 0 to 100 (0 no effect, 100 complete control)
Procedure, shortened: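 Greenhouse pots of Tama silt loam with weeds and rice at 2.0–2.5-leaf stage, flooded to 3 cm; compounds applied directly into paddy water, depth maintained. Visual rating versus untreated controls after 21 days, 0 (no effect) to 100 (complete control); 29.5/26.7 °C, 16-h photoperiod.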

[6] = tested on: water seeded rice seedlings (Oryza sativa cv. ‘Japonica-M202’); test: Test E flooded paddy water application; settings: Flood, 21 days, scale 0 to 100 (0 no effect, 100 complete control)
Procedure, shortened: as §4

[7] = tested on: purple redstem (Ammannia coccinea); test: Test E flooded paddy water application; settings: Flood, 21 days, scale 0 to 100 (0 no effect, 100 complete control)
Procedure, shortened: as §4

[8] = tested on: barnyardgrass (Echinochloa crus-galli); test: Test E flooded paddy water application; settings: Flood, 21 days, scale 0 to 100 (0 no effect, 100 complete control); for Plant response rating, Barnyardgrass: 16 g ai/ha
Procedure, shortened: as §4

[9] = tested on: late watergrass (Echinochloa oryzicola); test: Test E flooded paddy water application; settings: Flood, 21 days, scale 0 to 100 (0 no effect, 100 complete control)
Procedure, shortened: as §4

[10] = tested on: early watergrass (Echinochloa oryzoides); test: Test E flooded paddy water application; settings: Flood, 21 days, scale 0 to 100 (0 no effect, 100 complete control)
Procedure, shortened: as §4

[11] = tested on: smallflower umbrella sedge (Cyperus difformis); test: Test E flooded paddy water application; settings: Flood, 21 days, scale 0 to 100 (0 no effect, 100 complete control)
Procedure, shortened: as §4

[12] = tested on: rice flatsedge (Cyperus iria); test: Test E flooded paddy water application; settings: Flood, 21 days, scale 0 to 100 (0 no effect, 100 complete control)
Procedure, shortened: as §4

[13] = tested on: junglerice (Echinochloa colona); test: Test E flooded paddy water application; settings: Flood, 21 days, scale 0 to 100 (0 no effect, 100 complete control)
Procedure, shortened: as §4

[14] = Postemergence, 250 g ai/ha, scale 0 to 100
[15] = Postemergence, 16 g ai/ha, scale 0 to 100
[16] = Postemergence, 31 g ai/ha, scale 0 to 100
[17] = Postemergence, 62 g ai/ha, scale 0 to 100
[18] = Postemergence, 125 g ai/ha, scale 0 to 100
[19] = Preemergence, 16 g ai/ha, scale 0-100
[20] = Preemergence, 31 g ai/ha, scale 0-100
[21] = Preemergence, 62 g ai/ha, scale 0-100
[22] = Preemergence, 125 g ai/ha, scale 0-100
[23] = Preemergence, 250 g ai/ha, scale 0-100

Nc1nc(C2CC2)nc(C(=O)[O-])c1Cl.[Na+] [Compound 77, 6-amino-5-chloro-2-cyclopropyl-4-pyrimidinecarboxylic acid monosodium salt]
0: Plant response rating, Guineagrass [1, 15] | Plant response rating, Guineagrass [1, 16]
45: Plant response rating, Crabgrass, Large [2, 19] | Plant response rating, Crabgrass, Large [2, 20]
70: Plant response rating, Guineagrass [1, 20] | Plant response rating, Crabgrass, Large [2, 16]
75: Plant response rating, Guineagrass [1, 14] | Plant response rating, Crabgrass, Large [2, 14] | Plant response rating, Crabgrass, Large [2, 17] | Plant response rating, Crabgrass, Large [2, 18]
60: Plant response rating, Crabgrass, Large [2, 15]
95: Plant response rating, Guineagrass [1, 23]
30: Plant response rating, Guineagrass [1, 19]
65: Plant response rating, Guineagrass [1, 17] | Plant response rating, Guineagrass [1, 18]
80: Plant response rating, Crabgrass, Large [2, 21]
85: Plant response rating, Guineagrass [1, 21] | Plant response rating, Guineagrass [1, 22] | Plant response rating, Crabgrass, Large [2, 22]
90: Plant response rating, Crabgrass, Large [2, 23]

Nc1nc(-c2ccc(Cl)cc2)nc(C(=O)O)c1Br [Compound 88]
100: Ducksalad plant response rating ([3]; 32 g ai/ha) | Ducksalad plant response rating ([3]; 64 g ai/ha) | Ducksalad plant response rating ([3]; 125 g ai/ha) | Ducksalad plant response rating ([3]; 250 g ai/ha) | Flatsedge, Rice plant response rating ([12]; 64 g ai/ha) | Flatsedge, Rice plant response rating ([12]; 125 g ai/ha) | Flatsedge, Rice plant response rating ([12]; 250 g ai/ha)
95: Plant response rating, Ducksalad [3] | Sprangletop, Brdd. plant response rating ([4]; 250 g ai/ha) | Sedge, Umbrella plant response rating ([11]; 250 g ai/ha)
85: Sprangletop, Brdd. plant response rating ([4]; 125 g ai/ha) | Sedge, Umbrella plant response rating ([11]; 125 g ai/ha) | Flatsedge, Rice plant response rating ([12]; 32 g ai/ha)
65: Redstem plant response rating ([7]; 250 g ai/ha)
50: Watergrass, Early plant response rating ([10]; 250 g ai/ha) | Plant response rating, Flatsedge, Rice ([12]; 16 g ai/ha)
0: Sprangletop, Brdd. plant response rating ([4]; 32 g ai/ha) | Sprangletop, Brdd. plant response rating ([4]; 64 g ai/ha) | Plant response rating, Sprangletop, Brdd. ([4]; 16 g ai/ha) | Rice, Transplanted plant response rating ([5]; 32 g ai/ha) | Rice, Transplanted plant response rating ([5]; 64 g ai/ha) | Rice, Transplanted plant response rating ([5]; 125 g ai/ha) | Rice, Transplanted plant response rating ([5]; 250 g ai/ha) | Plant response rating, Rice, Transplanted ([5]; 16 g ai/ha) | Rice, Water Seeded plant response rating ([6]; 32 g ai/ha) | Rice, Water Seeded plant response rating ([6]; 64 g ai/ha) | Rice, Water Seeded plant response rating ([6]; 125 g ai/ha) | Rice, Water Seeded plant response rating ([6]; 250 g ai/ha) | Plant response rating, Rice, Water Seeded ([6]; 16 g ai/ha) | Redstem plant response rating ([7]; 32 g ai/ha) | Redstem plant response rating ([7]; 64 g ai/ha) | Redstem plant response rating ([7]; 125 g ai/ha) | Plant response rating, Redstem ([7]; 16 g ai/ha) | Barnyardgrass plant response rating ([8]; 32 g ai/ha) | Barnyardgrass plant response rating ([8]; 64 g ai/ha) | Barnyardgrass plant response rating ([8]; 125 g ai/ha) | Barnyardgrass plant response rating ([8]; 250 g ai/ha) | Plant response rating, Barnyardgrass [8] | Watergrass, Late plant response rating ([9]; 32 g ai/ha) | Watergrass, Late plant response rating ([9]; 64 g ai/ha) | Watergrass, Late plant response rating ([9]; 125 g ai/ha) | Watergrass, Late plant response rating ([9]; 250 g ai/ha) | Plant response rating, Watergrass, Late ([9]; 16 g ai/ha) | Watergrass, Early plant response rating ([10]; 32 g ai/ha) | Watergrass, Early plant response rating ([10]; 64 g ai/ha) | Watergrass, Early plant response rating ([10]; 125 g ai/ha) | Plant response rating, Watergrass, Early ([10]; 16 g ai/ha) | Junglerice plant response rating ([13]; 32 g ai/ha) | Junglerice plant response rating ([13]; 64 g ai/ha) | Junglerice plant response rating ([13]; 125 g ai/ha) | Plant response rating, Junglerice ([13]; 16 g ai/ha)
40: Sedge, Umbrella plant response rating ([11]; 32 g ai/ha) | Plant response rating, Sedge, Umbrella ([11]; 16 g ai/ha)
90: Junglerice plant response rating ([13]; 250 g ai/ha)

COC(=O)c1nc(-c2ccc(Br)cc2)nc(N)c1Br [Compound 129]
0: Sprangletop, Brdd. plant response rating ([4]; 64 g ai/ha) | Sprangletop, Brdd. plant response rating ([4]; 125 g ai/ha) | Plant response rating, Sprangletop, Brdd. ([4]; 16 g ai/ha) | Plant response rating, Sprangletop, Brdd. ([4]; 32 g ai/ha) | Rice, Transplanted plant response rating ([5]; 64 g ai/ha) | Rice, Transplanted plant response rating ([5]; 125 g ai/ha) | Rice, Transplanted plant response rating ([5]; 250 g ai/ha) | Plant response rating, Rice, Transplanted ([5]; 16 g ai/ha) | Plant response rating, Rice, Transplanted ([5]; 32 g ai/ha) | Rice, Water Seeded plant response rating ([6]; 64 g ai/ha) | Rice, Water Seeded plant response rating ([6]; 125 g ai/ha) | Rice, Water Seeded plant response rating ([6]; 250 g ai/ha) | Plant response rating, Rice, Water Seeded ([6]; 16 g ai/ha) | Plant response rating, Rice, Water Seeded ([6]; 32 g ai/ha) | Barnyardgrass plant response rating ([8]; 32 g ai/ha) | Barnyardgrass plant response rating ([8]; 64 g ai/ha) | Barnyardgrass plant response rating ([8]; 125 g ai/ha) | Barnyardgrass plant response rating ([8]; 250 g ai/ha) | Plant response rating, Barnyardgrass [8] | Watergrass, Late plant response rating ([9]; 64 g ai/ha) | Watergrass, Late plant response rating ([9]; 125 g ai/ha) | Watergrass, Late plant response rating ([9]; 250 g ai/ha) | Plant response rating, Watergrass, Late ([9]; 16 g ai/ha) | Plant response rating, Watergrass, Late ([9]; 32 g ai/ha) | Watergrass, Early plant response rating ([10]; 64 g ai/ha) | Watergrass, Early plant response rating ([10]; 125 g ai/ha) | Watergrass, Early plant response rating ([10]; 250 g ai/ha) | Plant response rating, Watergrass, Early ([10]; 16 g ai/ha) | Plant response rating, Watergrass, Early ([10]; 32 g ai/ha) | Plant response rating, Sedge, Umbrella ([11]; 16 g ai/ha) | Junglerice plant response rating ([13]; 64 g ai/ha) | Junglerice plant response rating ([13]; 125 g ai/ha) | Junglerice plant response rating ([13]; 250 g ai/ha) | Plant response rating, Junglerice ([13]; 16 g ai/ha) | Plant response rating, Junglerice ([13]; 32 g ai/ha)
60: Plant response rating, Redstem ([7]; 32 g ai/ha) | Plant response rating, Sedge, Umbrella ([11]; 32 g ai/ha)
30: Plant response rating, Redstem ([7]; 16 g ai/ha)
75: Redstem plant response rating ([7]; 64 g ai/ha)
100: Ducksalad plant response rating ([3]; 32 g ai/ha) | Ducksalad plant response rating ([3]; 64 g ai/ha) | Ducksalad plant response rating ([3]; 125 g ai/ha) | Ducksalad plant response rating ([3]; 250 g ai/ha) | Plant response rating, Ducksalad [3] | Sedge, Umbrella plant response rating ([11]; 125 g ai/ha) | Sedge, Umbrella plant response rating ([11]; 250 g ai/ha) | Flatsedge, Rice plant response rating ([12]; 64 g ai/ha) | Flatsedge, Rice plant response rating ([12]; 125 g ai/ha) | Flatsedge, Rice plant response rating ([12]; 250 g ai/ha) | Plant response rating, Flatsedge, Rice ([12]; 16 g ai/ha) | Plant response rating, Flatsedge, Rice ([12]; 32 g ai/ha)
95: Redstem plant response rating ([7]; 250 g ai/ha)
80: Redstem plant response rating ([7]; 125 g ai/ha) | Sedge, Umbrella plant response rating ([11]; 64 g ai/ha)
70: Sprangletop, Brdd. plant response rating ([4]; 250 g ai/ha)
